In PMC12641998, “Development of Cell-Permeable Adenylosuccinate Lyase Inhibitor” (Methods and Protocols, 2025):
Entries after “also recorded” stand apart in the source; their conditions may differ. Each block holds one compound with its values, some of them ahead of it.

Key:
recombinant human ADSL [1] = biological target: T1, recombinant human ADSL (Homo sapiens, UniProt P30566); assay: ADSL enzyme activity assay (A280); assay type: biochemical; conditions: for effect on ADSL in subsequent tests after the screen: follow-up of screening hits
T1 construct: made in house
T1 sequence (P30566 1-484): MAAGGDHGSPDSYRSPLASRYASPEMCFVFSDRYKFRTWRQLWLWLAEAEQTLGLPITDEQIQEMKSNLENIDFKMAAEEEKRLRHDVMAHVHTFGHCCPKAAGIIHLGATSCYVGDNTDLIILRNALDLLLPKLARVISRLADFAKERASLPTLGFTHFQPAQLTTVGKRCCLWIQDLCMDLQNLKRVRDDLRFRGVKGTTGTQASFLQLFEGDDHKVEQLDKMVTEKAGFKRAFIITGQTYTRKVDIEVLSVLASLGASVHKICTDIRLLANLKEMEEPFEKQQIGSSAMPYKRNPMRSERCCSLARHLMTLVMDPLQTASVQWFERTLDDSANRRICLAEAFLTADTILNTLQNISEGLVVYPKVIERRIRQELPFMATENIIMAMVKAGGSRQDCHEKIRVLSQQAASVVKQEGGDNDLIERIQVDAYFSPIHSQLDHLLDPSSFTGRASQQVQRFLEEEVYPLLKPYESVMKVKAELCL
Protocol: ADSL activity assays were performed as described in the literature. In brief, 0.60 mL solution containing recombinant human ADSL (0–2 μM), the test compound, 20 mM HEPES, pH 7.9, 50 mM KCl, 1 mM MgCl2, 1 mM DTT, and 1% DMSO was placed in a semi-micro quartz cuvette. This solution was kept at 37 °C for 30 min. The reaction was initiated by the addition of S-AMP or SAICAR to a final concentration of 0–2 mM (typically 0.20 mM). A280 was monitored every 5 s for 1 h using a Beckman DU650 spectrophotometer.

recombinant human ADSL [2] = biological target: T1, recombinant human ADSL; assay: Screening of LOPAC 1280 compounds for ADSL inhibitors; assay type: biochemical; conditions: 2 µM compound, 0.2 µM ADSL, 0.2 mM S-AMP
Protocol: In each well of UV-transparent 384-well plates, a 45 μL solution containing 0.20 μM recombinant human ADSL and 2 μM screening compounds from the LOPAC 1280 library was placed. The reaction buffer contained 20 mM HEPES, pH 7.9, 50 mM KCl, 1 mM MgCl2, 1 mM DTT, and 1% (v/v) DMSO. Following a 30 min-long incubation at ambient temperature, the reaction was initiated by the addition of S-AMP (final: 0.20 mM). The reaction was monitored by measuring A280 every 10 min for 4 h at 37 °C.
To identify ADSL inhibitors, the effects of LOPAC® 1280 library compounds on the activity of recombinant human ADSL were measured (Figure 2A). […] ADSL activity was monitored by measuring changes in A280 for 4 h at 37 °C. Compounds inhibiting ADSL activity by more than three standard deviations (Z-score < −3, Figure 2A) were counted as hits.

ADSL in HeLa cells = assay: Cellular SAICAR, AICAR, S-AMP and AMP levels by HILIC-HPLC-MS; assay type: cell-based, human; conditions: 12 h, triethylammonium salt form
Protocol: Cellular experiments and the measurement of nucleotides were carried out as we previously reported. […] The media were removed, and cells were washed five times with Dulbecco’s phosphate-buffered saline. Cells were lysed in ice-cold extraction solvent (95% methanol with 10 mM triethylammonium bicarbonate). The lysates were transferred to a centrifuge tube. Debris was removed by centrifugation at 150,000× g for 10 min at 4 °C. The supernatant was passed through Amicon Ultracel centrifugal filters (molecular weight cut-off 3 kDa). The filtrates were dried in vacuum and dissolved in 0.10 mL of extraction solvent. A 10 μL portion of this solution was subjected to HILIC-MS as we previously described. To measure cell proliferation, cells were detached by trypsin-EDTA and counted using a Moxi-Z cell counter as we previously described.
Next, we asked whether 1 inhibits ADSL in mammalian cells. […] Cells were lysed, and the amounts of SAICAR and S-AMP were measured by HILIC-HPLC-MS as we previously reported (Figure 6).

[3] = Permeability through an in vitro model of blood-brain barrier; assay type: in vitro ADME; conditions: Figure S7, n = 3
From the text: (1 picture or pasted object on this page, not shown here)

- effect on ADSL in subsequent tests after the screen (recombinant human ADSL [1]): did not inhibit ADSL
- screening outcome (hit: Z-score < −3) (recombinant human ADSL [2]): potential ADSL inhibitors
Structure (SMILES): CCCCc1oc2ccccc2c1C(=O)c1cc(I)c(OCCN(CC)CC)c(I)c1 [amiodarone]

Structure (SMILES): N=C(NO)NCCC[C@H](N)C(=O)O [N^ω-hydroxyl-L-arginine]
- effect on ADSL in subsequent tests after the screen (recombinant human ADSL [1]): ADSL became aggregated
- screening outcome (hit: Z-score < −3) (recombinant human ADSL [2]): potential ADSL inhibitors

- mechanism of ADSL inhibition (recombinant human ADSL [1]; Lineweaver-Burk plot): competitive
- Ki (recombinant human ADSL [1]; Lineweaver-Burk plot, read-out: Ki, inhibition of ADSL): 240 nM
- IC50 (recombinant human ADSL [1]; S-AMP as substrate (0.2 mM), read-out: IC50, inhibition of ADSL): 1400 nM
- screening outcome (hit: Z-score < −3) (recombinant human ADSL [2]): might be an inhibitor of ADSL
Structure (SMILES): O=C(Nc1cc(C(=O)Nc2ccc(S(=O)(=O)O)cc2S(=O)(=O)O)cc(C(=O)Nc2ccc(S(=O)(=O)O)cc2S(=O)(=O)O)c1)Nc1cc(C(=O)Nc2ccc(S(=O)(=O)O)cc2S(=O)(=O)O)cc(C(=O)Nc2ccc(S(=O)(=O)O)cc2S(=O)(=O)O)c1 [NF-449]

- EC50 (ADSL in HeLa cells; Homo sapiens, read-out: EC50, increase of cellular level of SAICAR): 400 nM
Structure (SMILES): O=C(Nc1ccccc1S(=O)(=O)O)c1cccc(C(=O)Nc2ccccc2S(=O)(=O)O)c1 [Compound 1, 2,2’-(1,3-phenylenebis(carbonylimino))bisbenzenesulfonate]
- effect on the cellular level of S-AMP and AMP (ADSL in HeLa cells): less effect
- increase of cellular level of SAICAR (ADSL in HeLa cells): approximately 2.5 fold
- level of AICAR, lower by (ADSL in HeLa cells): approximately 30%
- permeability through blood–brain barrier in vitro [3]: limited permeability; also recorded: comparable to the low -permeability standard

- inhibition of ADSL (recombinant human ADSL [1]; concentrations tested up to 30 μM): did not inhibit ADSL
Structure (SMILES): O=C(Nc1ccccc1)c1cccc(C(=O)Nc2ccccc2)c1 [Compound 3, N, N’-diphenylisopthalamide]
